Measured values: ChEMBL document CHEMBL5465560, “Selectivity Literature for EUbOPEN Chemogenomic Library” (2024)
One block for each molecule: values may come before it.

How the values were obtained:
[1] = molecular target: Non-receptor tyrosine-protein kinase TYK2 (Homo sapiens, UniProt P29597); assay: Selectivity interaction (KinomeScan (DiscoverX)) EUB0000595a TYK2; conditions: at 10 µM
[2] = molecular target: T1, Interleukin-1 receptor-associated kinase 4 (Homo sapiens) (UniProt Q9NWZ3); assay: Selectivity interaction (Kinase panel (KiNativ target engagement assay in Jurkat cells)) EUB0001635a IRAK4; type: cell-based; conditions: Selectivity number of off-targets 0.0, Selectivity number of targets 233.0, Source Knowledge https://www.sciencedirect.com/science/article/pii/S2451945619300674?via%3Dihub, at 1 µM
T1 sequence (whole entry): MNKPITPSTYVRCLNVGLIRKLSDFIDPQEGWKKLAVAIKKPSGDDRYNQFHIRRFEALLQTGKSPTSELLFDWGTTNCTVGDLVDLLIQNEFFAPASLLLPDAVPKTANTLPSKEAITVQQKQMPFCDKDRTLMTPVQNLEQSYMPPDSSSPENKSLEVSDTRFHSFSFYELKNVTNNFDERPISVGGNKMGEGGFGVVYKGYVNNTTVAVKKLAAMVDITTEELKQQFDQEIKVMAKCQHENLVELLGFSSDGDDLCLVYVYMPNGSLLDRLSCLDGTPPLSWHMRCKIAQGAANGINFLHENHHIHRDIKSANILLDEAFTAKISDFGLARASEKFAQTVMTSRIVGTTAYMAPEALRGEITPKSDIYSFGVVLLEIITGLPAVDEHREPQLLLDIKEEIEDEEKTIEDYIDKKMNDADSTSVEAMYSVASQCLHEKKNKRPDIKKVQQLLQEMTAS

[3] = molecular target: T2, Serine/threonine-protein kinase tousled-like 1 (Homo sapiens) (UniProt Q9UKI8); assay: Selectivity interaction (ActivX KiNativ screen (kinase selectivity in THP-1 cell lysates)) EUB0000639a TLK1; type: subcellular; conditions: lysate, at 0.01 µM
T2 sequence (whole entry): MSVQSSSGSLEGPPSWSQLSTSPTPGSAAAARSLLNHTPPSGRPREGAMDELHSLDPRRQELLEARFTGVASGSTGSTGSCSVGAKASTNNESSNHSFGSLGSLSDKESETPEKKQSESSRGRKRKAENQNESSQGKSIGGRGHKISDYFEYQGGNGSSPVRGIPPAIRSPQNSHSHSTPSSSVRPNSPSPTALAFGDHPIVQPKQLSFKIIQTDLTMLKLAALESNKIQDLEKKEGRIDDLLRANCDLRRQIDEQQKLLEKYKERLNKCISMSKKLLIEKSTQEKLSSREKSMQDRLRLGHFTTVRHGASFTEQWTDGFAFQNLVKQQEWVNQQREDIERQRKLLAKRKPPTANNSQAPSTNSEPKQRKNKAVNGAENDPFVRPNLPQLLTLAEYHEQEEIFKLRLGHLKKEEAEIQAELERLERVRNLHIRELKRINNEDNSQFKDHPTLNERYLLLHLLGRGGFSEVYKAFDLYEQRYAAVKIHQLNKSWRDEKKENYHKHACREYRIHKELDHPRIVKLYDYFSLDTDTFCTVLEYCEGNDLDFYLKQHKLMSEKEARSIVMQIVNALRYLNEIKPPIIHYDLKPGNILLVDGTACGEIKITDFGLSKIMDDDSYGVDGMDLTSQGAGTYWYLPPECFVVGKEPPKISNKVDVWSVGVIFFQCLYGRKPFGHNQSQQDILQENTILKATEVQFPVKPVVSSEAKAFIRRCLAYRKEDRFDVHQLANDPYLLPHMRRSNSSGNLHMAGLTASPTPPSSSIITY

[4] = molecular target: T3, Calcium/calmodulin-dependent protein kinase type IV (Homo sapiens) (UniProt Q16566); assay: Selectivity interaction (Kinase panel (Z-LYTE Assay)) EUB0001632a CAMK4; conditions: at 10 µM
T3 sequence (whole entry): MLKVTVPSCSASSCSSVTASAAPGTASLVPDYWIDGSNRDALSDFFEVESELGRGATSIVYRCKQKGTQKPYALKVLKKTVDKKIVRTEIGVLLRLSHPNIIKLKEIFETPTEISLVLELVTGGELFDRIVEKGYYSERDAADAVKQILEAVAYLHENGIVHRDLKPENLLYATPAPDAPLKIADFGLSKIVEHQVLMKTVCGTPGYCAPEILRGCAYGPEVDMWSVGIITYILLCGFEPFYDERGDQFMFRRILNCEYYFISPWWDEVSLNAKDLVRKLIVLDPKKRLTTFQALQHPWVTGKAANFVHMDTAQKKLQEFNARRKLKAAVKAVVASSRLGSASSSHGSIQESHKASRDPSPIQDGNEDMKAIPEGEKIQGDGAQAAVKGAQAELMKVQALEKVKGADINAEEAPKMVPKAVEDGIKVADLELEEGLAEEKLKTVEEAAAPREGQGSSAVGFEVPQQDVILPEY

[5] = molecular target: High affinity nerve growth factor receptor (Homo sapiens, UniProt P04629); assay: Selectivity interaction (KinomeScan (DiscoverX)) EUB0000695a NTRK1; conditions: at 100 nM
Chain of High affinity nerve growth factor receptor (P04629 33-796 limits assumed): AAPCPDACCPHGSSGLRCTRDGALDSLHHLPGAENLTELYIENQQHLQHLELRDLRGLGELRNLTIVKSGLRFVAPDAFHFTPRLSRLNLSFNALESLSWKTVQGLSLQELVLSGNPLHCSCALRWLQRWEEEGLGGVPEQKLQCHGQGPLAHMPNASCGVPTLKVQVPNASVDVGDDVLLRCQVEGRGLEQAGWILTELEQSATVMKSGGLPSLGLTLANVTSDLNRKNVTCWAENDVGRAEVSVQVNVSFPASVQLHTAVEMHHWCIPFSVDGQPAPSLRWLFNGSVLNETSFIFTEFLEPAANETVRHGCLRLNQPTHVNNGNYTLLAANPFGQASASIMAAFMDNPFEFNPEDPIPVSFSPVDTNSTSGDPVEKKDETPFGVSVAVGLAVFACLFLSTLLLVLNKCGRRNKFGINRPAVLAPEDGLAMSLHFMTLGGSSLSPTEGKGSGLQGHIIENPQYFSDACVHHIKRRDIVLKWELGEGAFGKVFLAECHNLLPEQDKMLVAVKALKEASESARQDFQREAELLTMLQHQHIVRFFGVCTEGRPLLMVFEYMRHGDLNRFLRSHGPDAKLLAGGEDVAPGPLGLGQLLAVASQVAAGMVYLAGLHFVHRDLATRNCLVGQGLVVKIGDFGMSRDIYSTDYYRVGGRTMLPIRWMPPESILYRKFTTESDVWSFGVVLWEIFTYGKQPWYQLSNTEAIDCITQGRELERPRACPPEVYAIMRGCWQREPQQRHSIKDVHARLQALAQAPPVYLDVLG

Chain of Non-receptor tyrosine-protein kinase TYK2 (P29597 whole entry): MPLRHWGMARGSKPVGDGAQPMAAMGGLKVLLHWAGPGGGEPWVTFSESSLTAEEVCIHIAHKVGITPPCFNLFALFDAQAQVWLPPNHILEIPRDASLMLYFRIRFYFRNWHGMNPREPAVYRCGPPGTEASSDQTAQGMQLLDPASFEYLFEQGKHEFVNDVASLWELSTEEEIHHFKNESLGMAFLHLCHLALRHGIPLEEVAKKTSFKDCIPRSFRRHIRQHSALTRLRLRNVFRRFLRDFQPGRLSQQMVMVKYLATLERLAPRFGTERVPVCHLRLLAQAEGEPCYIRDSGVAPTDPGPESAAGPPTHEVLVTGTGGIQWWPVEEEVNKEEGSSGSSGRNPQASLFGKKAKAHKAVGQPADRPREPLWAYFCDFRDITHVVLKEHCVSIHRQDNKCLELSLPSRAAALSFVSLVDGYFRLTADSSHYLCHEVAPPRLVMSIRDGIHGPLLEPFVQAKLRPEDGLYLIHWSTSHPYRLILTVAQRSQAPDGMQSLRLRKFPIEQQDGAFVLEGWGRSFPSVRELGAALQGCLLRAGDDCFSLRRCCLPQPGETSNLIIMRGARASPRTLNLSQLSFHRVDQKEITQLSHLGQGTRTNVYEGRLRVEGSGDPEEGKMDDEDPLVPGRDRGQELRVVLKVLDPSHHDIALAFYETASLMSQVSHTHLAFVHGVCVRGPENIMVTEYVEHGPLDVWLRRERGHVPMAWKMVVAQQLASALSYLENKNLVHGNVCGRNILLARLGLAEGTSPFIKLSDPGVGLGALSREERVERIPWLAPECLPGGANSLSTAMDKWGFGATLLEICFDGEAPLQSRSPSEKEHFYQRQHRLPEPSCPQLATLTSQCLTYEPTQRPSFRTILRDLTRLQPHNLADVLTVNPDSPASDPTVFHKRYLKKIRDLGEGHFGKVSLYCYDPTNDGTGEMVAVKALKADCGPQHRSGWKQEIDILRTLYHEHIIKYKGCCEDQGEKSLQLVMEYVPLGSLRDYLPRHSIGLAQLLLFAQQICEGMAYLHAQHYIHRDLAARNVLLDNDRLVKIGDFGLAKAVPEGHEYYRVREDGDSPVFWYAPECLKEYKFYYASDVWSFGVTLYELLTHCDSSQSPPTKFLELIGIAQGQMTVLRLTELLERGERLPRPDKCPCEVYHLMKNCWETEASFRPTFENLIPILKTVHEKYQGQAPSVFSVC

Compound: COCC(=O)NC/C=C/c1ccc2ncnc(Nc3ccc(Oc4ccc(C)nc4)c(C)c3)c2c1 [CP-724714]
% of control [1]: 100%

Compound: C=CC(=O)Nc1ccc(C(=O)Nc2[nH]nc3c2CN(C(=O)N[C@H](CN(C)C)c2ccccc2)C3(C)C)cc1
% of engagement [2]: 0.4%

% of inhibition [3]: 1.9%
Compound: CC[C@@H]1[C@H](F)C(=O)N[C@@H]1COc1nccc2cc(C(N)=O)c(OC)cc12 [ZIMLOVISERTIB]

% of control [4]: -4.99%
Compound: Cn1cc(-n2cnc3c(NCc4nc5cc(Cl)c(Cl)cc5[nH]4)nc(N4CCOCC4)nc32)cn1

Compound: Cc1cc(F)c(C(=O)Nc2cccc(-c3nncn3C(C)C)n2)cc1-n1cnc(C2CC2)c1
% of control [5]: 79%
